From ChEMBL document CHEMBL1201862, “PubChem BioAssay data set” (2004)
Calls of active or inactive are those of the source. Cut-off read from the data, not from the text of the source, for most assays here: actives have a measured AC50 and inactives only a lower limit.

Tests used:
[1] = activation of miR-122 Renilla sensor silencing – cell-based, Huh7 psiCHECK-miR122, Renilla luciferase, cherry-picked, dose response (AID 651956); assay type: functional;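 note: huh7 hepatoma cells stably carrying a psiCHECK-2 miR-122 sensor plasmid; renilla luciferase signal reporting endogenous miR-122 activity after 48 h compound exposure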
[2] = general mammalian cell viability loss – activator set, cherry-pick, cytotoxicity control for miR-122 modulator project, dose response (AID 720690); assay type: functional, cell-based;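 note: HEK293T human cells scored for general mammalian cytotoxicity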
[3] = target: NAD-dependent protein deacylase sirtuin-5, mitochondrial (Homo sapiens, UniProt Q9NXA8); assay: sirtuin-5 deacylation blockers, concentration series – biochemical, fluorescence imaging, cherry-pick, set 5, dose response (AID 720591);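 note: desuccinylation of succinyl peptide AMC substrate read as fluorescence after trypsin release; potency of inhibitors that lower fluorescence and may act on trypsin instead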
Sequence of NAD-dependent protein deacylase sirtuin-5, mitochondrial (Q9NXA8 whole entry): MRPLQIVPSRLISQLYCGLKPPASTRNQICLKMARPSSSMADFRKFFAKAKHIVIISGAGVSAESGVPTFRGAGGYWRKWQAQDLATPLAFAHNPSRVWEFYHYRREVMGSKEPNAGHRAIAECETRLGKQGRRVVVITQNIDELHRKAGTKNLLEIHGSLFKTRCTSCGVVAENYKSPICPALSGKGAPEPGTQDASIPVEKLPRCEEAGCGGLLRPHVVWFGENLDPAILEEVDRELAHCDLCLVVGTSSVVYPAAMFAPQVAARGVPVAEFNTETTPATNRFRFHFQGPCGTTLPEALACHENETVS

[4] = target: T1, Sentrin-specific protease 8 (Homo sapiens, UniProt Q96LD8); assay type: functional
T1 sequence (Q96LD8 whole entry): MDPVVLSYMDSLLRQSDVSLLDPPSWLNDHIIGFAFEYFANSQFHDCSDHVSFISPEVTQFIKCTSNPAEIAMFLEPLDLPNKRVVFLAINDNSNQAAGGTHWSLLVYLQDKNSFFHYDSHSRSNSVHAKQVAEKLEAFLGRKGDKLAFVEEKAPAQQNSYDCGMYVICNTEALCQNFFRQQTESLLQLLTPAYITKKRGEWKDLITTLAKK

[5] = target: T2, Heat shock factor protein 1 (Mus musculus, UniProt P38532); assay: decrease of HSF1-responsive luciferase luminescence – cell-based, NIH3T3, dose retest, confirmation (AID 2382); assay type: functional;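 note: NIH3T3 fibroblasts with HSF1-driven luciferase reporter stressed by proteasome inhibitor MG132; luminescence from HSF1-driven luciferase expression after 8 hours of MG132 stress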
T2 sequence (P38532 whole entry): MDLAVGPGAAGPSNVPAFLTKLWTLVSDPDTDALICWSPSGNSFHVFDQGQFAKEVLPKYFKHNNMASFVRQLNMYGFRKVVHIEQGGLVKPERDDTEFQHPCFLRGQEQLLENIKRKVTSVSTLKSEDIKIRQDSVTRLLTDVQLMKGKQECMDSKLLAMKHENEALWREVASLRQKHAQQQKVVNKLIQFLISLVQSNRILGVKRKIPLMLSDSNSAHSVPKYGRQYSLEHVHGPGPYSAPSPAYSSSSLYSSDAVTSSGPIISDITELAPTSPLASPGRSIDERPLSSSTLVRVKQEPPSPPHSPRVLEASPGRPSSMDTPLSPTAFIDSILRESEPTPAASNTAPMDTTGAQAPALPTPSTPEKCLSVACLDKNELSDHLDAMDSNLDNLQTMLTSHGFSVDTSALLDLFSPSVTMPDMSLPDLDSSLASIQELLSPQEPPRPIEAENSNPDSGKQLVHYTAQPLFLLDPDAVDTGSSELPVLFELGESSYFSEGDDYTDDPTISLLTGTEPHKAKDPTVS

[6] = target: T1, Sentrin-specific protease 8; assay type: functional; remark: listed apart in the source
[7] = target: Tyrosyl-DNA phosphodiesterase 2 (Homo sapiens, UniProt O95551); assay: potency against TDP2 phosphodiesterase activity – biochemical, epi absorbance, IC50, dose response (AID 743297)
Sequence of Tyrosyl-DNA phosphodiesterase 2 (O95551 whole entry): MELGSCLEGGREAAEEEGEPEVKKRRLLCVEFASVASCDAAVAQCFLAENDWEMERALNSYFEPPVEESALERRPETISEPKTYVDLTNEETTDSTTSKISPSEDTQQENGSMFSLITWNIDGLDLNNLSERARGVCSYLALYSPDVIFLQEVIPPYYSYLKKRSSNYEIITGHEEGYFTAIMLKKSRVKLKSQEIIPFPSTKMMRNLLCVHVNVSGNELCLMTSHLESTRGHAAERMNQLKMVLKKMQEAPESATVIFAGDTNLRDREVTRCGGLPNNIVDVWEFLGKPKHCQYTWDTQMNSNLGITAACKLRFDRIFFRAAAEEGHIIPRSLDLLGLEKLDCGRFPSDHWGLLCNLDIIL

Protein RecA = target: T3, Protein RecA (Mycobacterium tuberculosis, UniProt P9WHJ3); assay: Fluorescence Cell-Free Homogeneous Dose Retest to Identify Inhibitors of RecA-Intein Splicing Activity. [Related pubchem assays (depositor defined):AID2097, AID2223, AID489010, AID492950]; assay type: functional
T3 sequence (P9WHJ3 whole entry): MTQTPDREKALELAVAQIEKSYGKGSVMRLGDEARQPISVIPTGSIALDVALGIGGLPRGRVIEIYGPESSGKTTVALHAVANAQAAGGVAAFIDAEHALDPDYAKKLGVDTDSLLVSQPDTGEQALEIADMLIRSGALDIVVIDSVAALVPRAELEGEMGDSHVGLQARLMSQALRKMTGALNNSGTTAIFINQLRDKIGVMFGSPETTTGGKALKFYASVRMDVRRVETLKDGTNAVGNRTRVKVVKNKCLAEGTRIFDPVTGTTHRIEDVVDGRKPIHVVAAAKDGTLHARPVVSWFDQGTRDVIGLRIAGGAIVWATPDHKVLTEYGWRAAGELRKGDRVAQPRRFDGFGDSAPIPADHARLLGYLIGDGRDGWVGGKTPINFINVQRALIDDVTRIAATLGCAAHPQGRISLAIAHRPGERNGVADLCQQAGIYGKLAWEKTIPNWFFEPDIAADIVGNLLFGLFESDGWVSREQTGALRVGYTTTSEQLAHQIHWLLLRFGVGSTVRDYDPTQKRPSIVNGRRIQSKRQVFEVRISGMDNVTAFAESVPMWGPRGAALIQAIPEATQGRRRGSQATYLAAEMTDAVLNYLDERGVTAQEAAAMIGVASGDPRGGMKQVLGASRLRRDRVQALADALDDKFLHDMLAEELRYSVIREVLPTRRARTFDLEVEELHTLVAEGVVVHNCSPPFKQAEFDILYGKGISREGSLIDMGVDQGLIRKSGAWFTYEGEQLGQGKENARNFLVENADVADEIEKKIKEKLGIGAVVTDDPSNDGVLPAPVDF

[8] = target: T4, Replicative DNA helicase DnaB (Mycobacterium tuberculosis, UniProt P9WMR3); assay: DnaB intein splicing inhibitors, dose response, biochemical, cell-free fluorescence (AID 449749); assay type: functional
T4 sequence (P9WMR3 whole entry): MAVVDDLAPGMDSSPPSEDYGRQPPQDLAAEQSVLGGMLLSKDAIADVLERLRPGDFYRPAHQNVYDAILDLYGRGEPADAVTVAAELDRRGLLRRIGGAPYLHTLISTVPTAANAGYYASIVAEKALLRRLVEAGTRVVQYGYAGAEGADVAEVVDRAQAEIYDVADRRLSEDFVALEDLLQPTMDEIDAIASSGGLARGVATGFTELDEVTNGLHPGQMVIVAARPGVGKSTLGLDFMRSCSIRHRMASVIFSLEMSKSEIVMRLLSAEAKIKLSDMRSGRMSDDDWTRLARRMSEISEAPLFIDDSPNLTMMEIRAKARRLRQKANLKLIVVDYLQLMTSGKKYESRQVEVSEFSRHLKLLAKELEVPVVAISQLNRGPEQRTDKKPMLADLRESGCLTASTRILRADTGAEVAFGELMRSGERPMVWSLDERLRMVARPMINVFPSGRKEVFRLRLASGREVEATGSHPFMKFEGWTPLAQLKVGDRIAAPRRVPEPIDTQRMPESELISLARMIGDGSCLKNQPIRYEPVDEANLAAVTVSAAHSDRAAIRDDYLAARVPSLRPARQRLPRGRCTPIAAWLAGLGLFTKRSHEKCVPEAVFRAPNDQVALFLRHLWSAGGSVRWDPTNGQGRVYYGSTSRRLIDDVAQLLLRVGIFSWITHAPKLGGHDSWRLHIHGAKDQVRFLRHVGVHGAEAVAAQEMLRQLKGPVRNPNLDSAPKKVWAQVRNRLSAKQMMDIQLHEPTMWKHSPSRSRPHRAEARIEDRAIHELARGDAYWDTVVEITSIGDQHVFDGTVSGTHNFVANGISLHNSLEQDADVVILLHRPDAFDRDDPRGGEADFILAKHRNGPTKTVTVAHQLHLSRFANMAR

[9] = viability loss in A549 lung cancer cells – cell-based, cherry-picks, […], cytotoxicity control, dose response (AID 1053119); assay type: functional
[10] = P. falciparum Dd2 growth inhibitors, dose response, SYBR Green, cherry-picked samples (AID 1159567); assay type: functional, cell-based
[11] = viability loss in HepG2 hepatoma cells – cell-based, cherry-picks, set 5, cytotoxicity control, dose response (AID 1053118); assay type: functional
[12] = toxicity to human hepatoma HepG2 cells – cell-based, cherry-picked samples, cytotoxicity control, dose response (AID 1159577); assay type: functional
[13] = viability loss in HEK293 kidney cells – cell-based, cherry-picks, set 5, cytotoxicity control, dose response (AID 1053117); assay type: functional
fMet-Leu-Phe receptor = fMet-Leu-Phe receptor (Homo sapiens, UniProt P21462); assay: formyl peptide receptor binders – dose response (AID 519); assay type: functional
Sequence of fMet-Leu-Phe receptor (P21462 whole entry): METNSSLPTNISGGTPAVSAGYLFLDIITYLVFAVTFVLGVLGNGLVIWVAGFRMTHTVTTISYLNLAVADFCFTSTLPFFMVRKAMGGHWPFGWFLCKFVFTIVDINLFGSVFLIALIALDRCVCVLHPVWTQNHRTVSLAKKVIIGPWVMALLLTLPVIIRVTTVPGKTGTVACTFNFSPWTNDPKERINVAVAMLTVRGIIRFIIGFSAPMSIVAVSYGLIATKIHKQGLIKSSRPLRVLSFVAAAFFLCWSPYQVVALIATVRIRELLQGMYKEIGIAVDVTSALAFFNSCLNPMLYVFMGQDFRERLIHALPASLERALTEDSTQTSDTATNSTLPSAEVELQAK

[14] = blockers of FN fibrillogenesis by fibroblasts – AH1F cells, Alexa488-FN fluorescence, cherry-picks, dose response (AID 1035475); assay type: functional, cell-based
[15] = inhibitors acting on PAX2 in cells – cell-based, plate reader, dry powder samples, selectivity assay for PAX8 inhibitor project, dose response (AID 743048); assay type: functional;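 note: HEK293 cells carrying a WT1 promoter luciferase reporter driven by expressed Pax2; potency is for inhibition of Pax2 driven reporter signal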
[16] = A2780 cell killing – plate reader, dry powder samples, cytotoxicity control, dose response (AID 743046); assay type: functional, cell-based
[17] = OVCAR8 cell viability loss – plate reader, dry powder samples, PAX8 project, dose response (AID 743197); assay type: functional, cell-based; details: OVCAR-8
[18] = PAX5 cellular inhibition readout – cell-based, plate reader, dry powder samples, selectivity assay for PAX8 inhibitor project, dose response (AID 743047); assay type: functional;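 note: HEK293 cells carrying a Pax5 driven CD19 promoter luciferase reporter; potency of inhibitors that lower reporter luminescence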
Paired box protein Pax-8 = Paired box protein Pax-8 (Homo sapiens, UniProt Q06710); assay: PAX8 transcriptional activity inhibition in RMG-I – RMG-I cells, luciferase, cherry-pick, dose response (AID 687027); assay type: functional, cell-based;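 note: luciferase reporter driven by Pax8 target thyroperoxidase promoter measured by SteadyGlo luminescence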
Sequence of Paired box protein Pax-8 (Q06710 whole entry): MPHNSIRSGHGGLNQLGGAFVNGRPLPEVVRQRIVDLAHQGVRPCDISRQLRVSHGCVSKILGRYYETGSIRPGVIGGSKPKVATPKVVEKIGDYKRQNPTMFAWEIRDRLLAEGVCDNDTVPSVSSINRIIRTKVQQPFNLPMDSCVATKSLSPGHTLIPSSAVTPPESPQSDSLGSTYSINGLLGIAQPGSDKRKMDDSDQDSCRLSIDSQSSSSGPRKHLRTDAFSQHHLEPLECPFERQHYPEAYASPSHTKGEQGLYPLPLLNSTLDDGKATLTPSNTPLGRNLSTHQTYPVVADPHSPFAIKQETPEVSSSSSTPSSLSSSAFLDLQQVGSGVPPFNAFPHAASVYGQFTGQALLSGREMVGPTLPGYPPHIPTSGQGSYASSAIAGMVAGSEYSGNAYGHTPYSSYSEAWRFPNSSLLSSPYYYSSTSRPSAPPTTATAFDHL

[19] = OVCAR4 cell viability loss – plate reader, dry powder, SA11, cytotoxicity control for PAX8 inhibitor project, dose response (AID 743150); assay type: functional, cell-based; details: OVCAR-4
[20] = COV362 cell viability loss – plate reader, dry powder, SA12, cytotoxicity control for PAX8 inhibitor project, dose response (AID 743144); assay type: functional, cell-based
[21] = PAX8-dependent cell viability loss – plate reader, dry powder, dose response (AID 743049); assay type: functional, cell-based
[22] = COV434 cell viability loss – plate reader, dry powder, SA7, cytotoxicity control for PAX8 inhibitor project, dose response (AID 743145); assay type: functional, cell-based
[23] = target: 1-phosphatidylinositol 4,5-bisphosphate phosphodiesterase beta-3 (Homo sapiens, UniProt Q01970); assay: Fluorescence-based biochemical high throughput dose response assay to identify inhibitors of phospholipase C isozymes (PLC-B3).
Sequence of 1-phosphatidylinositol 4,5-bisphosphate phosphodiesterase beta-3 (Q01970 whole entry): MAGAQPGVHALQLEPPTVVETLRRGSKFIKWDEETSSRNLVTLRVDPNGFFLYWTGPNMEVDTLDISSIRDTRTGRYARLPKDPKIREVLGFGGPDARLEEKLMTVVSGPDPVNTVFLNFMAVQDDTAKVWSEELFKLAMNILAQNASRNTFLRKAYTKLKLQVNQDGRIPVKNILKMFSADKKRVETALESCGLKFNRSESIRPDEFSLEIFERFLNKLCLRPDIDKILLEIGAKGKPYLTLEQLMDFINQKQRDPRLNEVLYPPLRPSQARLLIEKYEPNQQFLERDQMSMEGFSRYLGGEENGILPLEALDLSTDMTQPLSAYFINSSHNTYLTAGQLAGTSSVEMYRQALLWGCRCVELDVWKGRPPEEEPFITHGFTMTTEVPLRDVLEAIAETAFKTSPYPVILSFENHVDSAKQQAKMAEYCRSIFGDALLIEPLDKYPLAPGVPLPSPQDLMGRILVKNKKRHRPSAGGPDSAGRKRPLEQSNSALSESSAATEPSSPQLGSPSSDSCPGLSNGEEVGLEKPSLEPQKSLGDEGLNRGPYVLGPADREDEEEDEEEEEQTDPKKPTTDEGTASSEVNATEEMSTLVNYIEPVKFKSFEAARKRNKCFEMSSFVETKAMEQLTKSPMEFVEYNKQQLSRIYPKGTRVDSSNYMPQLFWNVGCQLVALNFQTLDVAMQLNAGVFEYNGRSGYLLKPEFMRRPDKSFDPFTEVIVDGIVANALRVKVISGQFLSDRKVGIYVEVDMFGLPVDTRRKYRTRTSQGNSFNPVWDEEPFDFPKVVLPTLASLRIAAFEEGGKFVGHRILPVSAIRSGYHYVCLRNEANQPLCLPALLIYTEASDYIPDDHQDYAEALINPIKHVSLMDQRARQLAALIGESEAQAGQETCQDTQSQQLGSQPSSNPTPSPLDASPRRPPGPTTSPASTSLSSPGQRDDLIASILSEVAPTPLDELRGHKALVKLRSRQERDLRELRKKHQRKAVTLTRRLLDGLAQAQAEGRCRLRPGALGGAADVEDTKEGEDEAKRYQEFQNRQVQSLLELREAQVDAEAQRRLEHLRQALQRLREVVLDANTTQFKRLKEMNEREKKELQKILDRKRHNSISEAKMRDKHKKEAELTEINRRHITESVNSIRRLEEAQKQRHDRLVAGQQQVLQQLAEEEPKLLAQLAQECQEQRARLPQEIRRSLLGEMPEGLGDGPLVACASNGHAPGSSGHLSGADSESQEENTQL

[24] = target: 1-phosphatidylinositol 4,5-bisphosphate phosphodiesterase gamma-1 (Homo sapiens, UniProt P19174); assay: Counterscreen for inhibitors of phospholipase C isozymes (PLC-B3): Fluorescence-based biochemical high throughput dose response assay to identify inhibitors of phospholipase C isozymes (PLC-gamma1).
Sequence of 1-phosphatidylinositol 4,5-bisphosphate phosphodiesterase gamma-1 (P19174 whole entry): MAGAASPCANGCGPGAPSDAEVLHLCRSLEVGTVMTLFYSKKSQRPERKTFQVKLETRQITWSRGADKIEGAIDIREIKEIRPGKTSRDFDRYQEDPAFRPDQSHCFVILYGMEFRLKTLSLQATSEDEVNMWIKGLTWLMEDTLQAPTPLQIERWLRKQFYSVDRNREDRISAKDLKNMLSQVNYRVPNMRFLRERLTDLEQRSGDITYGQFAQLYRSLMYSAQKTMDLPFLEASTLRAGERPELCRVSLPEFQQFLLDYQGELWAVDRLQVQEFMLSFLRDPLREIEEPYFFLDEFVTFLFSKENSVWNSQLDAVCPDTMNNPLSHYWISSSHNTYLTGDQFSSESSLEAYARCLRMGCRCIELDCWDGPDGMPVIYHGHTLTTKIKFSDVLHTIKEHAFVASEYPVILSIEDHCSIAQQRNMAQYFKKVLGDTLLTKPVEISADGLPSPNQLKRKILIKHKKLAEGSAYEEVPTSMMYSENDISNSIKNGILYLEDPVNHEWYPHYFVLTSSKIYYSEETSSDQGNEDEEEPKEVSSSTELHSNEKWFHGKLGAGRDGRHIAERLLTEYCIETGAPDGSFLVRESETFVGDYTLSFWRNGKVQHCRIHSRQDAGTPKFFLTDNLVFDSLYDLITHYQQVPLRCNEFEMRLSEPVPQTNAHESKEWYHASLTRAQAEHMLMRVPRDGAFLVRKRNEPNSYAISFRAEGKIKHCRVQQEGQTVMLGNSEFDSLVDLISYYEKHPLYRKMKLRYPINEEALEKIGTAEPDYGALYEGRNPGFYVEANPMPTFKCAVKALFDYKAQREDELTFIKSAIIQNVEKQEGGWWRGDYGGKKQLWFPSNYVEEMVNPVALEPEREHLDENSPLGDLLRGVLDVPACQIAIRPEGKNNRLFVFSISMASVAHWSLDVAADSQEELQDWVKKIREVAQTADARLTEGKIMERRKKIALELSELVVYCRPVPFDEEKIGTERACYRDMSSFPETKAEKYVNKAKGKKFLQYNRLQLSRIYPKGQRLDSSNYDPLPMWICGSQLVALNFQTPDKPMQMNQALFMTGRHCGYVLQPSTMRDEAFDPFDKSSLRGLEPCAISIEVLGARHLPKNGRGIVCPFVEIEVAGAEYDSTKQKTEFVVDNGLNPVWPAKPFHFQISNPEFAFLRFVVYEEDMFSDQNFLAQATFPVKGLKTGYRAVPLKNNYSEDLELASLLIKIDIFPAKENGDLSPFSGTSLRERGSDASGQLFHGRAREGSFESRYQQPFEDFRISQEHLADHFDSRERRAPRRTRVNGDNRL

COc1ccc(NC(=O)N2CCCCN3[C@H](CO)[C@H](c4ccc(C#CCC(C)C)cc4)[C@H]3C2)cc1
AC50 [1]: 7.68 µM (active) | AC50 [2]: 16 µM (active)

O=S(=O)(c1ccc(NC2=NN=C(c3cc(F)ccc3F)CS2)cc1)N1CCOCC1
AC50 [3]: > 30 µM (inactive)

Nn1cnnc1N/N=C/c1ccc(Cl)c([N+](=O)[O-])c1
IC50 [4]: 23.2 µM (active) | EC50 [5]: 10.2 µM (active) | IC50 [6]: 21.7 µM (active) | IC50 [7]: 81.2 µM (inactive) | EC50 (Protein RecA): 10.3 µM (active) | AC50 [8]: 18.1 µM (active)

CO[C@@H]1CN(C)C(=O)c2cc(NC(=O)Nc3ccc(Cl)c(Cl)c3)ccc2OC[C@@H](C)NC[C@@H]1C
AC50 [9]: > 52 µM (inactive) | AC50 [10]: 5.7 µM (active) | AC50 [11]: > 52 µM (inactive) | AC50 [12]: 18.2 µM (active) | AC50 [13]: 45.9 µM (active)

C/C(=C1/SC(N2CCCC2)=NC1=O)c1ccc(Br)cc1
Ki (fMet-Leu-Phe receptor): > 66.7 µM (inactive)

C[C@@H]1CN([C@@H](C)CO)C(=O)c2cc(NC(=O)C3CCCCC3)ccc2O[C@H]1CN(C)Cc1ccc(-c2ccccc2)cc1
AC50 [14]: 30.9 µM (active) | AC50 [13]: > 52 µM (inactive)

N#C[C@@H]1[C@H](c2ccc(C#CC3CCCC3)cc2)[C@H](CO)N1C(=O)Nc1ccc(F)cc1
AC50 [15]: 9.84 µM (active) | AC50 [16]: 19.4 µM (active) | AC50 [17]: > 70 µM (inactive) | AC50 [18]: 9.89 µM (active) | AC50 (Paired box protein Pax-8): 10.5 µM (active) | AC50 [19]: 18.8 µM (active) | AC50 [20]: 62.6 µM (active) | AC50 [21]: 19.8 µM (active) | AC50 [22]: 46.9 µM (active)

CCOC(=O)CSc1nnc(Cn2c(=O)sc3ccccc32)n1-c1ccccc1C
IC50 [23]: > 122 µM (inactive) | IC50 [24]: > 122 µM (inactive)
